Experimental data as given in patent US20130225597A1, “USE OF PHOSPHODIESTERASE INHIBITOR TO ENHANCE POST-SURGICAL ERECTION IN MEN UNDERGOING RADICAL PROSTATECTOMY” (University of Medicine and Dentistry of New Jersey, priority 2010, published 2013).
Structures can show the parent of a compound that is named as a salt.

Assays:
PC12 neuronal cell = assay: Neuronal survival of hydrogen peroxide treated PC-12 cells; format: cell-based; conditions: 1 mM H2O2 for 1 hour, 24 hours incubation, viable cells counted
Experimental: Neuronal Survival Experiments. For survival experiments, PC12 neuronal cell were seeded in 6-well plates at a density of 1×10^5 per well in Dulbecco's modified Eagle's medium (DMEM) supplemented with 1% fetal bovine serum (FBS) and 100 ng/ml nerve growth factor (NGF), herein after (“Media”), for 3 days. Media was changed every 3 days. Cells were treated in the presence or absence of 1 mM hydrogen peroxide (H2O2) for 1 hour in the presence or absence of either sildenafil Citrate, vardenafil, or tardalafil at 0.1-fold physiologic dose (0.5 μM, 0.3 μM and 0.4 μM, respectively), physiologic dose (5 μM, 3 μM and 4 μM, respectively) and 10-fold physiologic dose (50 μM, 30 μM and 40 μM, respectively). Treated cells were incubated for 24 hours at 37° C. Viable cells were detached and counted using an automated counter.

[1] = tested on: spinal motor and non-motor neurons; conditions: cited from earlier work
[2] = tested on: post-radical prostatectomy erection dysfunction; assay: Clinical study: sildenafil citrate at the operative site in robot-assisted radical prostatectomy, potency recovery; format: in vivo, humans; conditions: 147 men
Experimental: Clinical Studies. For effective study in humans, 147 men that underwent robot-assisted radical prostatectomy were treated with sildenafil citrate at the operative site. Potency was reported in 24.2%, 84.2% and 93.3% of the subjects at three, six, and twelve months post-operative, respectively.

## COc1ccc(C2CNC(=O)C2)cc1OC1CCCC1 (centres unmarked) [rolipram]
PC12 neuronal cell
  protection against H2O2-induced cell death (neuronal viability): significant protection

## CCCOc1ccccc1-c1nc2nn[nH]c2c(=O)[nH]1 [zaprinas]
[1]
  protection against acute Reactive Oxygen Species-induced neurotoxicity: protect

## CCCc1nn(C)c2c(=O)[nH]c(-c3cc(S(=O)(=O)N4CCN(C)CC4)ccc3OCC)nc12 [sildenafil citrate]
[2]; six months post-operative
  Potency reported, % of subjects: 84.2%
[2]; three months post-operative
  Potency reported, % of subjects: 24.2%
[2]; twelve months post-operative
  Potency reported, % of subjects: 93.3%
